What was measured:
[1] = rat, in vivo, po, 10 mg/kg
Description: In Vivo Pharmacokinetic Tests Male Sprague-Dawley Rats in Fasted Condition
Comparative In Vivo Pharmacokinetic Tests in Male Sprague-Dawley Rats in Fasted Condition
Both test substances were administered via gastric tube in a dosing volume of 5 ml/kg. The vehicle of the test items was sterile 0.9% NaCl solution and the suspension was kept homogenous by continuous stirring during treatment in order to minimize the error resulting from the sedimentation.
Male Wistar rats (purchased from Laboratory Animal Center, University of Szeged) were maintained on a standard pellet rodent diet (Bioplan Ltd, Isaszeg, Hungary) under temperature and light-controlled conditions with tap water available ad libitum. The acclimatization period was at least 4 days. […] All animals were fasting for 16 hours before oral treatment. […] Water was available immediately after treatment for all animals. […] Serum samples were prepared by centrifugation (7000 rpm, 10 min, 4° C.) of the clotted blood within 60 minutes and were stored at −20° C. till analysis.
An aliquot of 200 μl serum was combined with 20 μl of internal standard working solution and 1.2 ml methanol for protein precipitation. The mixture was vortexed for 1 min and centrifuged at 12000 rpm for 10 min at 4° C. The supernatants were evaporated to dryness under a stream of nitrogen at 40° C. and reconstituted with 200 μl of water-methanol (50:50 v/v) and 20 μl was injected into the HPLC system.
Statistical analysis and graph drawing were carried out be GraphPad Prism 4.0 (GraphPad Software, San Diego, USA).

[2] = Comparative dissolution test in distillate water; format: physicochemical; conditions: 5 mg in 10 mL distillate water
Description: The suspension was stirred for 1, 5, 10, 15, 20, and 30 minutes and then it was filtered by 0.2 μm disposable syringe filter.

[3] = cited from earlier work
[4] = monotherapy, 108 of 3260 patients; cited from earlier work
[5] = cited from earlier work; remark: listed apart in the source
[6] = rats; cited from earlier work
[7] = intravenous dose of 14C-labeled Candesartan

CCOc1nc2cccc(C(=O)OC(C)OC(=O)OC3CCCCC3)c2n1Cc1ccc(-c2ccccc2-c2nnn[nH]2)cc1 (racemic) [Candesartan Cilexetil, (±)-1-Hydroxyethyl 2-ethoxy-1-[p-(o-1H-tetrazol-5-ylphenyl)benzyl]-7-benzimidazolecarboxylate, cyclohexyl carbonate (ester)]
AUC15-120 min [1]: 120.8 µg·min/mL
AUC15-360 min [1]: 420.2 µg·min/mL
maximal serum Candesartan concentration (Cmax) [1]: 1612 ± 248 ng/mL
tmax [1]: 2 h
Candesartan Cilexetil content in distilled water by UV-VIS [2]: cannot be detected
solubility in methanol ([3]; methanol): sparingly soluble
solubility in water ([3]; water): practically insoluble
rate of withdrawals due to adverse events [4]: 3.3%

CCOc1nc2cccc(C(=O)O)c2n1Cc1ccc(-c2ccccc2-c2nnn[nH]2)cc1 [Candesartan]
dose excreted unchanged in urine ([5]; administered orally): about 26%
effect of food with a high fat content on bioavailability ([5]; after Candesartan Cilexetil administration): does not affect
absolute bioavailability of Candesartan ([5]; following administration of Candesartan Cilexetil): 15%
bound to plasma proteins ([5]; in vivo): > 99%
elimination half-life ([5]; in vivo): approximately 9 hours
penetration of red blood cells ([5]; in vivo): does not penetrate red blood cells
renal clearance ([5]; in vivo): 0.19 mL/min/kg
total plasma clearance ([5]; in vivo): 0.37 mL/min/kg
volume of distribution ([5]; in vivo): 0.13 L/kg
radioactivity recovered in feces [5, 7]: approximately 36%
radioactivity recovered in urine [5, 7]: approximately 59%
accumulation in serum ([5]; repeated once-daily dosing): do not accumulate
crossing of the blood-brain barrier [6]: crosses the blood-brain barrier poorly, if at all
passage across the placental barrier [6]: passes across the placental barrier and is distributed in the fetus

From patent US20120141561A1, “NANOPARTICULATE CANDESARTAN CILEXITIL COMPOSITIONS, PROCESS FOR THE PREPARATION THEREOF AND PHARMACEUTICAL COMPOSITIONS CONTAINING THEM” (priority 2009, published 2012)
